A short description of test [1]: Binding affinity to 5'-FAM-pre-miR-372 (unknown origin) after 4 hrs by fluorescence assay in presence of 100-fold excess of 15-mer DNA.
The nature of test [2]: Inhibition of pre-miR-17 (unknown origin) cleavage assessed as reduction of oncogenic microRNAs biogenesis at 200 uM by measuring fluorescence every minute for 5 hrs using 5'-FAM,3'-dabcyl-pre-miRNA beacons by FRET assay in presence of recombinant Dicer.
Test [3] is described as follows: Binding affinity to 5'-FAM-pre-miR-372 (unknown origin) assessed as change in total free energy by thermodynamic assay.
Test [4] in a line: Inhibition of pre-miR-373 (unknown origin) cleavage assessed as reduction of oncogenic microRNAs biogenesis by measuring fluorescence every minute for 5 hrs using 5'-FAM,3'-dabcyl-pre-miRNA beacons by FRET assay in presence of recombinant Dicer.
Test [5] can be described thus: Inhibition of pre-miR-21 (unknown origin) cleavage assessed as reduction of oncogenic microRNAs biogenesis by measuring fluorescence every minute for 5 hrs using 5'-FAM,3'-dabcyl-pre-miRNA beacons by FRET assay in presence of recombinant Dicer.
A short description of test [6]: Inhibition of pre-miR-373 (unknown origin) cleavage assessed as reduction of oncogenic microRNAs biogenesis at 200 uM by measuring fluorescence every minute for 5 hrs using 5'-FAM,3'-dabcyl-pre-miRNA beacons by FRET assay in presence of recombinant Dicer.
The nature of test [7]: Binding affinity to 5'-FAM-pre-miR-372 (unknown origin) after 4 hrs by fluorescence assay.
Test [8] is described as follows: Inhibition of pre-miR-372 (unknown origin) cleavage assessed as reduction of oncogenic microRNAs biogenesis at 200 uM by measuring fluorescence every minute for 5 hrs using 5'-FAM,3'-dabcyl-pre-miRNA beacons by FRET assay in presence of recombinant Dicer.
The nature of test [9]: Inhibition of pre-miR-372 (unknown origin) cleavage assessed as reduction of oncogenic microRNAs biogenesis by measuring fluorescence every minute for 5 hrs using 5'-FAM,3'-dabcyl-pre-miRNA beacons by FRET assay in presence of recombinant Dicer.
Test [10] is described as follows: Binding affinity to 5'-FAM-pre-miR-17 (unknown origin) after 4 hrs by fluorescence assay.
A short description of test [11]: Inhibition of pre-miR-21 (unknown origin) cleavage assessed as reduction of oncogenic microRNAs biogenesis at 200 uM by measuring fluorescence every minute for 5 hrs using 5'-FAM,3'-dabcyl-pre-miRNA beacons by FRET assay in presence of recombinant Dicer.
A short description of test [12]: Binding affinity to 5'-FAM-pre-miR-373 (unknown origin) after 4 hrs by fluorescence assay.
A short description of test [13]: Ratio of Kd for 5'-FAM-pre-miR-372 (unknown origin) in presence of 100-fold excess of 15-mer DNA to Kd for 5'-FAM-pre-miR-372 (unknown origin).
The nature of test [14]: Ratio of Kd for 5'-FAM-pre-miR-372 (unknown origin) in presence of 100-fold excess of Escherichia coli tRNA to Kd for 5'-FAM-pre-miR-372 (unknown origin).
The nature of test [15]: Binding affinity to 5'-FAM-pre-miR-372 (unknown origin) after 4 hrs by fluorescence assay in presence of 100-fold excess of Escherichia coli tRNA.
The nature of test [16]: Inhibition of pre-miR-17 (unknown origin) cleavage assessed as reduction of oncogenic microRNAs biogenesis by measuring fluorescence every minute for 5 hrs using 5'-FAM,3'-dabcyl-pre-miRNA beacons by FRET assay in presence of recombinant Dicer.

Broadly, the Kd is the free concentration of one partner at which half of the binding sites on the other are occupied at equilibrium, for simple one-to-one binding. What is called inhibition is the relative decrease from the control value, in per cent. The term IC50 denotes the concentration needed to halve the response being measured.

Active and inactive are the calls of the source. The calls are words filed in the database; no cut-off is given here.

For `CN[C@@H]1[C@@H](O[C@H]2O[C@H](CO)[C@@H](N)[C@H](O)[C@H]2O)OC2C[C@@H](N)[C@@H](O[C@H]3[C@H](O)[C@@H](O)[C@H](N)C[C@@H]3N)OC2[C@@H]1O` (stereo partly drawn) [APRAMYCIN], the Kd was determined as 6.55 µM in [1]; 2.99 µM in [7] (read-out: Kd); 1.03 µM in [10] (read-out: Kd); 4.2 µM in [12] (read-out: Kd); 9.05 µM in test [15]. Also, the inhibition in test [2], in [6], in test [8] and in test [11] was 60% in each case. The Activity in [3] is 72%. The IC50 was 335 µM in test [4], 170 µM in [5] and 162 µM in [9]. Also, the Ratio in [13] worked out at 2.2; in [14] it was 3.
Consider `CC[C@H]1OC(=O)[C@H](C)[C@@H](O[C@H]2C[C@@](C)(OC)[C@@H](O)[C@H](C)O2)[C@H](C)[C@@H](O[C@@H]2O[C@H](C)C[C@H](N(C)C)[C@H]2O)[C@](C)(O)C[C@@H](C)CN(C)[C@H](C)[C@@H](O)[C@]1(C)O` [AZITHROMYCIN], for which the Kd in test [1] was 7.43 µM; in test [7] (read-out: Kd), 1.62 µM; in [10] (read-out: Kd), 1.63 µM; in [12] (read-out: Kd), 1.41 µM; in [15] it was 1.9 µM. Besides, the Ratio was 4.5 in [13] and 1.2 in [14].
With `NC[C@H]1O[C@H](O[C@H]2[C@H](O)[C@@H](O[C@H]3O[C@H](CO)[C@@H](O)[C@H](N)[C@H]3O)[C@H](N)C[C@@H]2N)[C@H](N)[C@@H](O)[C@@H]1O` [BEKANAMYCIN], the inhibition result in [2], in test [6], in test [8] and in [11] was “inactive” in each case. The Kd result in test [7], in test [10] and in [12] was “Not Active” in each case.
For `O=C(N[C@H](CO)[C@H](O)c1ccc([N+](=O)[O-])cc1)C(Cl)Cl` [CHLORAMPHENICOL], the Kd result in test [7], in [10] and in [12] was “Not Active” each time.
Regarding `CCC[C@@H]1C[C@@H](C(=O)N[C@@H]([C@H]2O[C@H](SC)[C@H](O)[C@@H](O)[C@H]2O)[C@H](C)Cl)N(C)C1` [CLINDAMYCIN], the Kd result in test [7], in test [10] and in test [12] was “Not Active” each time.
With `C[C@H]1c2cccc(O)c2C(=O)C2=C(O)[C@]3(O)C(=O)C(C(N)=O)=C(O)[C@@H](N(C)C)[C@@H]3[C@@H](O)[C@@H]21` [DOXYCYCLINE], the Kd in [1] turned out to be 1.62 µM; in test [7] (read-out: Kd), 0.908 µM; in test [10] (read-out: Kd), 0.94 µM; in test [12] (read-out: Kd), 1.42 µM; in test [15], 2 µM. For the same compound, the inhibition in [2], in test [6], in test [8] and in test [11] was 20% throughout. The Activity in test [3] amounted to 78%. Moreover, the IC50 amounted to 366 µM in [4], 555 µM in test [5], 567 µM in test [9] and 380 µM in test [16]. Further, the Ratio in test [13] is 1.8; in test [14] it was 2.
Turning to `CC[C@H]1OC(=O)[C@H](C)[C@@H](O[C@H]2C[C@@](C)(OC)[C@@H](O)[C@H](C)O2)[C@H](C)[C@@H](O[C@@H]2O[C@H](C)C[C@H](N(C)C)[C@H]2O)[C@](C)(O)C[C@@H](C)C(=O)[C@H](C)[C@@H](O)[C@]1(C)O` [ERYTHROMYCIN], the Kd was 30.7 µM in test [1]; 6.11 µM in test [7] (read-out: Kd); 27.4 µM in [10] (read-out: Kd); 6.51 µM in [12] (read-out: Kd); 8.73 µM in test [15]. Moreover, the Ratio in test [13] is 5; in test [14], 1.4.
Turning to `CCC[C@@H]1C[C@@H](C(=O)N[C@@H]([C@H]2O[C@H](SC)[C@H](O)[C@@H](O)[C@H]2O)[C@@H](C)O)N(C)C1` [LINCOMYCIN], the Kd result in [7], in test [10] and in test [12] was “Not Active” throughout.
As to `CC(=O)NC[C@H]1CN(c2ccc(N3CCOCC3)c(F)c2)C(=O)O1` [LINEZOLID], the Kd result in [7], in [10] and in test [12] was “Not Active” in each case.
As for `NC[C@H]1O[C@H](O[C@H]2[C@H](O)[C@@H](O)[C@H](N)C[C@@H]2N)[C@H](N)[C@@H](O)[C@@H]1O` [NEAMINE], the Kd in test [1] worked out at 248 µM; in test [7] (read-out: Kd) it was 160 µM; in test [10] (read-out: Kd), 24.9 µM; in test [12] (read-out: Kd), 187 µM; in test [15] it was 394 µM. Further, the inhibition in test [2], in test [6], in test [8] and in test [11] was 10% each time. Moreover, the Activity in test [3] was found to be 72%. Besides, the IC50 in test [4] was 751 µM; in [9], 298 µM. Also, the Ratio turned out to be 1.5 in test [13] and 2.5 in test [14].
For the compound `NC[C@@H]1O[C@H](O[C@H]2[C@@H](O)[C@H](O[C@@H]3[C@@H](O)[C@H](N)C[C@H](N)[C@H]3O[C@H]3O[C@H](CO)[C@@H](O)[C@H](O)[C@H]3N)O[C@@H]2CO)[C@H](N)[C@@H](O)[C@@H]1O` [PAROMOMYCIN], the Kd turned out to be 167 µM in [1]; 138 µM in test [7] (read-out: Kd); 44 µM in [10] (read-out: Kd); 91.2 µM in test [12] (read-out: Kd); 133 µM in test [15]. Further, the inhibition in test [2], in test [6], in [8] and in test [11] was 10% in each case. In addition, the Activity in test [3] was determined as 61%. Moreover, the IC50 in [4] was 345 µM; in test [5], 543 µM; in test [9], 773 µM. The Ratio worked out at 1.2 in [13] and 1 in test [14].
`COc1ccc(C[C@H](N)C(=O)N[C@H]2[C@@H](O)[C@H](n3cnc4c(N(C)C)ncnc43)O[C@@H]2CO)cc1` [PUROMYCIN]: the Kd in test [7] (read-out: Kd) is 11.8 µM; in [10] (read-out: Kd), 5.85 µM; in test [12] (read-out: Kd) it was 12.7 µM.
Take `CN[C@@H]1[C@H](O)[C@H](NC)[C@H]2O[C@@]3(O)C(=O)C[C@@H](C)O[C@H]3O[C@@H]2[C@H]1O` [SPECTINOMYCIN]: the inhibition result in test [2], in test [6], in [8] and in [11] was “inactive” each time. Also, the Kd result in test [7], in [10] and in test [12] was “Not Active” in each case.
Take `CN[C@@H]1[C@H](O[C@H]2[C@H](O[C@H]3[C@H](O)[C@@H](O)[C@H](N=C(N)N)[C@@H](O)[C@@H]3N=C(N)N)O[C@@H](C)[C@]2(O)C=O)O[C@@H](CO)[C@H](O)[C@H]1O` [STREPTOMYCIN]: the Kd stood at 48.2 µM in test [1]; 26.8 µM in test [7] (read-out: Kd); 18.5 µM in test [10] (read-out: Kd); 45 µM in test [12] (read-out: Kd); 61.1 µM in test [15]. For the same compound, the inhibition result in [2], in test [6], in test [8] and in test [11] was “inactive” each time. For the same compound, the Activity in test [3] stood at 47%. The half-maximal inhibitory concentration (IC50) in test [5] was determined as 688 µM; in test [9], 678 µM. Besides, the values for the Ratio in test [13] and in [14] were 1.8 and 2, respectively.
On to GENTAMICIN [listing 1 of 2 here], for which the Kd was 8.1 µM in [1]; 3.67 µM in test [7] (read-out: Kd); 4.98 µM in [10] (read-out: Kd); 6.64 µM in test [12] (read-out: Kd); 4.2 µM in test [15]. The IC50 was found to be 159 µM in [4], 242 µM in [5], 667 µM in test [9] and 540 µM in [16].
Take GENTAMICIN [listing 2 of 2 here]: the inhibition in [2], in test [6], in test [8] and in [11] was 10% each time. The Activity in test [3] came out at 63%. Moreover, the Ratio in test [13] turned out to be 4; in test [14] it was 1.1.

These data come from ChEMBL document CHEMBL3603759, “Ribosome-targeting antibiotics as inhibitors of oncogenic microRNAs biogenesis: Old scaffolds for new perspectives in RNA targeting” (Bioorg Med Chem, 2015).
